In patent US7514579B2, “Boronic chalcone derivatives and uses thereof” (Johns Hopkins University, priority 2002, dated 2009) one finds IC50 data, which are given here for eleven compounds.

What all share (conditions): MTT growth inhibition, 96 hours exposure
Experiment [1] relates to MCF-12A normal breast epithelial cell line. The experiment is described as follows: MTT survival assay, MCF-12A cells. Type of experiment: cell-based, human. The method, then:
(§1) The cytotoxicity of the boronic chalcone analogs and carboxylic acid chalcones were evaluated and compared by MTT survival assays of human breast cancer MDA-MB-435, MDA-MB-231, Wt-MCF7, and MCF-10A cells treated at different concentrations of the analogs.
(§2) Human breast cancer MDA-MB-231 (estrogen independent) and wtMCF7 (estrogen dependent) human breast cancer cells were maintained in DMEM medium supplemented with 5% fetal bovine serum, 2 mM glutamine, and 100 units/mL penicillin/streptomycin. MDA-MB-435 (estrogen independent) human breast cancer cells were maintained in IMEM medium supplemented with 5% fetal bovine serum and 2 mM glutamine. Each cell line used has unique growth characteristics spanning the spectrum of tumor invasiveness, differentiation and estrogen dependence. Normal breast epithelial cell lines, MCF-10A and MCF-12A, were maintained in 5% and 10% horse serum in DMEM:Ham's F12 media, respectively, supplemented with 2 mM glutamine, 100 units/mL penicillin/streptomycin, 0.02 μg/mL EGF, 0.01 mg/mL insulin, and 0.1 μg/mL cholera toxin.
(§3) Cells were incubated at 37° C. in a 5% CO2 atmosphere. The MTT colorimetric assay was used to determine growth inhibition (Mosmann, T., J. Immunol. Methods, 1983, 65, 55-63). Cells were plated in 96-well plates and allowed to attach for 24 hours. Chalcone derivatives based on compounds 20 and 21 below were dissolved in DMSO at 10 mM concentrations. Cells were expose in quadruplicate well to chalcone concentrations of 0.5-100 µM for 96 hours. After 96 hours the media was aspirated, and 100 µL of 1 mg/mL MTT solution (Sigma Chemical Co.) diluted in serum free media was added to each well. After 4 hours of incubation, the MTT solution was removed and 200 µL of 1:1 (v/v) solution of DMSO:ethanol was added to each well to dissolve formazan crystals. The absorbance at A540nm was determined on a plate reader. IC50 values were determined from log plots of percent of control vs. concentration. Each compound was assayed twice in quadruplicate. Analogs 3g and 9 have been previously described (Stoll R., et al., supra; Kussie, P. H., et al., supra) and were included for comparative purposes.

The test system of experiment [2] is MDA-MB-435 (estrogen independent) human breast cancer cells. The experiment is described as follows: MTT survival assay, MDA-MB-435 cells. Type of experiment: cell-based. The method, then:
as §1, §2, §3
(Tetrazolium dyes change colour on reduction, which living cells bring about.)

Experiment [3] deals with MDA-MB-231 (estrogen independent) human breast cancer cells. The experiment can be described thus: MTT survival assay, MDA-MB-231 cells. Type of experiment: cell-based. The method, then: as §1, §2, §3
Experiment [4] relates to MCF-10A normal breast epithelial cell line. The experiment is described as follows: MTT survival assay, MCF-10A cells. Type of experiment: cell-based, human. The method, then:
as §1, §2, §3

Experiment [5] deals with wtMCF7 (estrogen dependent) human breast cancer cells. The experiment is described as follows: MTT survival assay, Wt-MCF7 cells. In kind it is cell-based. The method, then:
as §1, §2, §3

As a reminder, the IC50 is the midpoint of a concentration-inhibition curve. A lower IC50 goes with inhibition by little substance. Consider `O=C(/C=C/c1ccc(Cl)c(Cl)c1)c1ccc(B(O)O)cc1` [Compound 8], for which the IC50 in experiment [1] was found to be 15 µM; in experiment [2], 4 µM; in experiment [3], 8 µM; in experiment [4] it was 18 µM; in experiment [5] it was 5.5 µM.

For the compound `O=C(/C=C/c1ccc(F)c(F)c1)c1ccc(B(O)O)cc1` [Compound 3d], the IC50 in experiment [1] was 39 µM; in experiment [2], 8.8 µM; in experiment [3], 8.8 µM; in experiment [4], 18 µM; in experiment [5], 7.8 µM.

On to `O=C(/C=C/c1ccc(I)cc1)c1ccc(O)cc1` [Compound 6], for which the IC50 is 30 µM in experiment [1]; 4.5 µM in experiment [2]; 8 µM in experiment [3]; 15 µM in experiment [4]; 7 µM in experiment [5].

On to `O=C(O)COc1ccc(C(=O)/C=C/c2ccc(I)cc2)cc1` [Compound 3f], for which the IC50 in experiment [1] amounted to 38 µM; in experiment [2] it was 18 µM; in experiment [3], 44 µM; in experiment [4], 44 µM; in experiment [5], 9 µM.

`O=C(O)COc1ccc(C(=O)/C=C/c2ccc(Cl)c(Cl)c2)cc1` [Compound 9, reference compound]: the IC50 in experiment [1] came out at 28 µM; in experiment [2] it was 13 µM; in experiment [3], 18 µM; in experiment [4], 12 µM; in experiment [5], 15 µM.

On to `O=C(/C=C/c1ccc(F)c(Cl)c1)c1ccc(B(O)O)cc1` [Compound 3c], for which the IC50 in experiment [1] came to 22 µM; in experiment [2], 16 µM; in experiment [3] it was 8.5 µM; in experiment [4] it was 25 µM; in experiment [5], 6 µM.

Consider `O=C(/C=C/c1ccc(F)c(Br)c1)c1ccc(B(O)O)cc1` [Compound 3e], for which the half-maximal inhibitory concentration (IC50) in experiment [1] turned out to be 38 µM; in experiment [2], 8.8 µM; in experiment [3], 9.5 µM; in experiment [4], 17 µM; in experiment [5] it was 8.5 µM.

With `O=C(/C=C/c1ccc(I)cc1)c1ccc(OCB(O)O)cc1` [Compound 7], the IC50 in experiment [1] was determined as 100 µM; in experiment [2], 18 µM; in experiment [3], 11 µM; in experiment [4] it was 38 µM; in experiment [5], 9.5 µM.

In the case of `O=C(/C=C/c1ccc(Cl)c(Cl)c1)c1ccc(B(O)O)cc1` [Compound 3b], the half-inhibitory concentration (IC50) in experiment [1] was 11 µM; in experiment [2] it was 3.5 µM; in experiment [3], 9.5 µM; in experiment [4] it was 18 µM; in experiment [5] it was 5 µM.

For the compound `O=C(O)COc1ccc(C(=O)/C=C/c2ccc(Cl)c(Cl)c2)cc1` [Compound 3g, reference compound], the IC50 in experiment [1] amounted to 15 µM; in experiment [2], 9 µM; in experiment [3], 9 µM; in experiment [4], 13 µM; in experiment [5], 13 µM.

Regarding `O=C(/C=C/c1ccc(I)cc1)c1ccc(B(O)O)cc1` [Compound 3a], the IC50 in experiment [1] amounted to 63 µM; in experiment [2] it was 10 µM; in experiment [3] it was 8.8 µM; in experiment [4] it was 75 µM; in experiment [5], 7 µM.
